Measured values taken from PubChem BioAssay AID330 (DTP/NCI, 2004).
“And” between values parts separate entries of the source, which are not always exact repeats. Identical values can stand only once. Inconclusive results and toxic doses are left out. The calls were made as follows: active = survival T/C of 150% or more; inactive = T/C below 125% in these data.

System: P388 leukemia ip, CD2F1 mice, survival T/C
Assay: NCI In Vivo Anticancer Drug Screen. Data for tumor model P388 Leukemia (intraperitoneal) in CD2F1 (CDF1) mice
Conditions: endpoint: median survival time, higher = longer survival
Summary of the method: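 Mice carrying the transplanted tumor received test compound or vehicle. Survival was recorded in each group, and the value is the treated-group measurement divided by that of the vehicle-treated control group.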

[1] = dose: 100.0 mg/kg/injection, schedule: Q04DX003 (ip), vehicle: saline with Tween-80
[2] = dose: 200.0 mg/kg/injection, schedule: Q04DX003 (ip), vehicle: saline with Tween-80
[3] = dose: 400.0 mg/kg/injection, schedule: Q04DX003 (ip), vehicle: saline with Tween-80
[4] = dose: 25.0 mg/kg/injection, schedule: Q01DX009 (ip), vehicle: saline with Tween-80
[5] = dose: 50.0 mg/kg/injection, schedule: Q01DX009 (ip), vehicle: saline with Tween-80
[6] = dose: 100.0 mg/kg/injection, schedule: Q01DX009 (ip), vehicle: saline with Tween-80
[7] = dose: 200.0 mg/kg/injection, schedule: Q01DX009 (ip), vehicle: saline with Tween-80
[8] = dose: 400.0 mg/kg/injection, schedule: Q01DX009 (ip), vehicle: saline with Tween-80
[9] = dose: 50.0 mg/kg/injection, schedule: Q01DX009 (ip), vehicle: Klucel (hydroxypropylcellulose) (HPC)
[10] = dose: 100.0 mg/kg/injection, schedule: Q01DX009 (ip), vehicle: Klucel (hydroxypropylcellulose) (HPC)
[11] = dose: 60.0 mg/kg/injection, schedule: Q01DX005 (ip), vehicle: saline with Tween-80
[12] = dose: 120.0 mg/kg/injection, schedule: Q01DX005 (ip), vehicle: saline with Tween-80
[13] = dose: 100.0 mg/kg/injection, schedule: Q01DX009 (ip), vehicle: other
[14] = dose: 200.0 mg/kg/injection, schedule: Q01DX009 (ip), vehicle: other
[15] = dose: 12.5 mg/kg/injection, schedule: Q01DX009 (ip), vehicle: saline
[16] = dose: 25.0 mg/kg/injection, schedule: Q01DX009 (ip), vehicle: saline
[17] = dose: 50.0 mg/kg/injection, schedule: Q01DX009 (ip), vehicle: saline

Measured: T/C

O=[N+]([O-])c1cc2[nH]cnc2c([N+](=O)[O-])c1Nc1ccc(O)cc1
inactive: [1] 87 % of control | [2] 95 % of control | [3] 101 % of control

COc1cc2c(c(OC)c1OC)CCc1cn[nH]c1-2
inactive: dose: 100.0 mg/kg/injection, schedule: Q01DX001 (ip), vehicle: Klucel (hydroxypropylcellulose) (HPC) 116 % of control | dose: 200.0 mg/kg/injection, schedule: Q01DX001 (ip), vehicle: Klucel (hydroxypropylcellulose) (HPC) 123 % of control | dose: 400.0 mg/kg/injection, schedule: Q01DX001 (ip), vehicle: Klucel (hydroxypropylcellulose) (HPC) 116 % of control

CS(=O)(=O)O/C=C1/CCOC1=O
inactive: dose: 3.13 mg/kg/injection, schedule: Q01DX009 (ip), vehicle: water 107 % of control | dose: 6.25 mg/kg/injection, schedule: Q01DX009 (ip), vehicle: water 104 % of control | dose: 12.5 mg/kg/injection, schedule: Q01DX009 (ip), vehicle: water 102 % of control and 108 % of control | dose: 25.0 mg/kg/injection, schedule: Q01DX009 (ip), vehicle: water 120 % of control

CC(=O)NCCCCCCCNC(C)=O
inactive: dose: 60.0 mg/kg/injection, schedule: Q01DX005 (ip), vehicle: saline 104 % of control | dose: 120.0 mg/kg/injection, schedule: Q01DX005 (ip), vehicle: saline 107 % of control | dose: 240.0 mg/kg/injection, schedule: Q01DX005 (ip), vehicle: saline 96 % of control

CNP1(NC)=NP(NC)(NC)=NP(NC)(NC)=NP(NC)(NC)=N1
inactive: dose: 50.0 mg/kg/injection, schedule: Q01DX005 (ip), vehicle: saline 115 % of control | dose: 100.0 mg/kg/injection, schedule: Q01DX005 (ip), vehicle: saline 110 % of control | dose: 200.0 mg/kg/injection, schedule: Q01DX005 (ip), vehicle: saline 104 % of control

O=C(CC(O)(C(F)(F)F)C(F)(F)F)c1cc(CC(=O)C(O)(C(F)(F)F)C(F)(F)F)cc(CC(=O)C(O)(C(F)(F)F)C(F)(F)F)c1
inactive: [4] 97 % of control | [5] 103 % of control | [6] 100 % of control | [7] 105 % of control | [8] 115 % of control

COc1cc([C@@H]2c3cc4c(cc3[C@H](OC(=O)c3ccccc3C(=O)O)[C@H]3COC(=O)[C@H]23)OCO4)cc(OC)c1OC
inactive: dose: 12.5 mg/kg/injection, schedule: Q01DX005 (ip), vehicle: Klucel (hydroxypropylcellulose) (HPC) 119 % of control | dose: 25.0 mg/kg/injection, schedule: Q01DX005 (ip), vehicle: Klucel (hydroxypropylcellulose) (HPC) 119 % of control

CCCC(C)C(CC)C(=O)NC(N)=O (stereo not given)
inactive: dose: 12.5 mg/kg/injection, schedule: Q01DX009 (ip), vehicle: Klucel (hydroxypropylcellulose) (HPC) 101 % of control | dose: 25.0 mg/kg/injection, schedule: Q01DX009 (ip), vehicle: Klucel (hydroxypropylcellulose) (HPC) 102 % of control | [9] 98 % of control | [10] 101 % of control

COc1ccc(C(C)(C)c2cc3c(cc2OC)OCO3)cc1
inactive: [11] 104 % of control | [12] 116 % of control

Nc1nc(N2CCCCC2)c2nc(Cl)n(C3OC(CO)C(O)C3O)c2n1 (stereo not given)
inactive: [11] 92 % of control | [12] 101 % of control | dose: 240.0 mg/kg/injection, schedule: Q01DX005 (ip), vehicle: saline with Tween-80 100 % of control

C=C(C)CNCCN
inactive: dose: 50.0 mg/kg/injection, schedule: Q01DX005 (ip), vehicle: saline with Tween-80 112 % of control | dose: 100.0 mg/kg/injection, schedule: Q01DX005 (ip), vehicle: saline with Tween-80 112 % of control | dose: 200.0 mg/kg/injection, schedule: Q01DX005 (ip), vehicle: saline with Tween-80 112 % of control

O=c1cc(-c2ccccc2)ss1
inactive: [13] 110 % of control | [14] 110 % of control

O=c1oc2c(c(=O)n1-c1ccccc1)CC1(CCCCC1)C2
inactive: [9] 103 % of control | [10] 113 % of control | dose: 200.0 mg/kg/injection, schedule: Q01DX009 (ip), vehicle: Klucel (hydroxypropylcellulose) (HPC) 105 % of control

Nc1nc2c(c(=O)[nH]1)N(C(=O)CCl)C(CNc1ccc(C(=O)NC(CCC(=O)O)C(=O)O)cc1)CN2 (stereo not given)
inactive: dose: 50.0 mg/kg/injection, schedule: Q01DX009 (ip), vehicle: water 99 % of control | dose: 100.0 mg/kg/injection, schedule: Q01DX009 (ip), vehicle: water 103 % of control | dose: 200.0 mg/kg/injection, schedule: Q01DX009 (ip), vehicle: water 101 % of control

CN(C)[C](=[Au][Cl])c1ccccc1
inactive: dose: 25.0 mg/kg/injection, schedule: Q04DX002 (ip), vehicle: Klucel (hydroxypropylcellulose) (HPC) 109 % of control | dose: 50.0 mg/kg/injection, schedule: Q04DX002 (ip), vehicle: Klucel (hydroxypropylcellulose) (HPC) 111 % of control | dose: 100.0 mg/kg/injection, schedule: Q04DX002 (ip), vehicle: Klucel (hydroxypropylcellulose) (HPC) 108 % of control and 96 % of control

O=c1n(-c2ccccc2)c(=O)n2n1CC(c1ccccc1)=N2
inactive: [13] 99 % of control | [14] 91 % of control | dose: 400.0 mg/kg/injection, schedule: Q01DX009 (ip), vehicle: other 89 % of control

c1ccc2sc(NC(Nc3nc4ccccc4s3)C34CC5CC(CC(C5)C3)C4)nc2c1
inactive: dose: 12.5 mg/kg/injection, schedule: Q01DX009 (ip), vehicle: saline with Tween-80 98 % of control | [4] 98 % of control | [5] 91 % of control and 96 % of control

CC(C)COCCCN
inactive: [15] 100 % of control | dose: 12.5 mg/kg/injection, schedule: Q04DX003 (ip), vehicle: saline 91 % of control | [16] 100 % of control | dose: 25.0 mg/kg/injection, schedule: Q04DX003 (ip), vehicle: saline 100 % of control | [17] 100 % of control | dose: 50.0 mg/kg/injection, schedule: Q04DX003 (ip), vehicle: saline 91 % of control

C=CC1(C)CC(=O)C2(O)C(C)(O1)C(OC(C)=O)C(O)C1C(C)(C)CCC(O)C12C (stereo not given)
inactive: dose: 2.0 mg/kg/injection, schedule: Q01DX005 (ip), vehicle: other 99 % of control | dose: 4.0 mg/kg/injection, schedule: Q01DX005 (ip), vehicle: other 100 % of control | dose: 8.0 mg/kg/injection, schedule: Q01DX005 (ip), vehicle: other 95 % of control | dose: 16.0 mg/kg/injection, schedule: Q01DX005 (ip), vehicle: other 94 % of control

CCCCN(CCCC)C(=N)c1cc(OC)ccc1OC
inactive: dose: 3.12 mg/kg/injection, schedule: Q01DX005 (ip), vehicle: saline 101 % of control | dose: 6.25 mg/kg/injection, schedule: Q01DX005 (ip), vehicle: saline 100 % of control

CCCCCCC1(/C=C/c2ccc(Cl)c(Cl)c2)OCCS1 (stereo not given)
inactive: [15] 96 % of control | [16] 104 % of control | [17] 100 % of control and 109 % of control and 95 % of control | dose: 100.0 mg/kg/injection, schedule: Q01DX009 (ip), vehicle: saline 95 % of control | dose: 200.0 mg/kg/injection, schedule: Q01DX009 (ip), vehicle: saline 88 % of control

CC(C)=CC1C(C(=O)OCc2ccc(C)cc2C)C1(C)C (stereo not given)
inactive: [6] 104 % of control | [1] 100 % of control | [7] 109 % of control | [2] 100 % of control | [8] 122 % of control | [3] 100 % of control
